Assay results taken from patent publication US9464064B2, “HCV helicase inhibitors and methods of use thereof” (University of Kansas, priority 2011, dated 2016).

Experiments:
[1] = target: T1, HCV NS3 helicase NS3h_1b(con1) (Hepatitis C virus genotype 1b, UniProt Q9WMX2); assay: biochemical; assay type: biochemical, hepatitis C virus genotype 1b(con1)
T1 construct: truncated C-terminally His-tagged NS3 proteins lacking the N-terminal protease, called NS3h; His-tag (C); made in house
Source text: (§1) All oligonucleotides were purchased from Integrated DNA Technologies (IDT, Coralville, Iowa). The partially duplex DNA substrates used in MBHAs consisted of a helicase substrate forming 25 base pairs and consists of a 45-mer bottom strand 5′-GCTCCCCGTTCATCGATTGGGGAGC(T)20-3′ (SEQ ID NO:1) and the 25-mer HCV top strand 5′-Cy5-GCTCCCCAATCGATGAACGGGGAGC-IBRQ-3′ (SEQ ID NO:2). The 19 base pair RNA substrate used in MBHAs was composed of a 39 nucleotide long bottom strand 5′-AGU GCC UUG ACG AUA CAG C(U)20-3′ (SEQ ID NO:3) and the 24 nucleotide long top strand 5′-Tye^665-AGUGCGCUGUAUCGUCAAGGCACU-IBRQSp-3′ (SEQ ID NO:4). Underlined areas denote hairpin-forming regions. DNA and RNA substrates were annealed and purified as described previously (Belon & Frick (2008) BioTechniques 45:433-40, 442).
The cloning, expression, and purification of His-tagged recombinant HCV NS3 protein have been described previously (Lam, et al. (20030 J. Virol. 77:3950-61; Heck, et al. (2008) Antimicrob. Agents Chemother. 52:1901-11; Frick et al. (2010) Methods Mol. Biol. 587:223-233; Belon, et al. & Frick (2009) J. Mol. Biol. 388:851-864).
(§2) All molecular beacon-based helicase assays (MBHAs) were performed according to known methods (Belon & Frick (2008) supra; Belon & Frick (2009) supra). […] In each flat, black 384-well plate, 56 compounds were tested, in triplicate, along with three negative controls (DMSO only), three positive controls (500 nM dT20), and two wells with no enzyme. Fluorescence was read before ATP (F0) addition and 30 minutes after ATP was added to 1 mM (F30) using a Tecan Infinite M200 fluorescence microplate reader with excitation and emission wavelengths set to 643 and 670 nm, respectively. Percent inhibition was calculated with equation 1, and compound interference in the MBHA was calculated with equation 2.
To monitor helicase reaction kinetics and to calculate IC50 values, MBHAs were performed in 60 μL in white ½ area 96-well plates and measured in a Thermo Varioscan Multimode reader (Thermo Scientific) using the 643 nm excitation wavelength and 667 emission wavelengths. Reactions were again performed by first incubating all components except for ATP for two minutes, then initiated by injecting in 1/10 volume of ATP such that the final concentration of all components was as noted above. Conditions were as described above except that 5% v/v DMSO was present in each assay. Initial reaction velocities were calculated by fitting first-order decay equation to data obtained after ATP addition and calculating an initial velocity form the resulting amplitude and rate constant.
[formula] where, v0 is the velocity observed in DMSO-only controls inhibition, h is the Hillslope coefficient, [I] is the concentration of test compound.

HCV helicase = target: T2, HCV helicase (Hepatitis C virus genotype 1b, UniProt Q9WMX2); assay: MBHA with RNA substrate (HCV helicase-catalyzed RNA unwinding); assay type: biochemical; conditions: in words
T2 construct: truncated C-terminally His-tagged NS3 proteins lacking the N-terminal protease, called NS3h; His-tag (C); made in house
Source text: as §1, §2
To monitor helicase reaction kinetics and to calculate IC50 values, MBHAs were performed in 60 μL in white ½ area 96-well plates and measured in a Thermo Varioscan Multimode reader (Thermo Scientific) using the 643 nm excitation wavelength and 667 emission wavelengths. […] Initial reaction velocities were calculated by fitting first-order decay equation to data obtained after ATP addition and calculating an initial velocity form the resulting amplitude and rate constant.

T1 sequence (Q9WMX2 1192-1657): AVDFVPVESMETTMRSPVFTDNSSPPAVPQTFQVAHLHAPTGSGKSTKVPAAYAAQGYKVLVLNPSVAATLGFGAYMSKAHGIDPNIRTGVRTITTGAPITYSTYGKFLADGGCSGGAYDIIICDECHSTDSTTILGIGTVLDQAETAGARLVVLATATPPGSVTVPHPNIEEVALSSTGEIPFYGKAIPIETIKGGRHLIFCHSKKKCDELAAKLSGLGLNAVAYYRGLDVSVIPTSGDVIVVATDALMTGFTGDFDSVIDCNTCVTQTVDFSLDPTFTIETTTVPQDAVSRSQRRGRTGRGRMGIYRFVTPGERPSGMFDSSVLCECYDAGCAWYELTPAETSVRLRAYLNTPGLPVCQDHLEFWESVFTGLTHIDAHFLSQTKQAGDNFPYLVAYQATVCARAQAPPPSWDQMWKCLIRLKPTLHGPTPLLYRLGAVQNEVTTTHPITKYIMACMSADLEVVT
T2 sequence (Q9WMX2 1192-1657): as above

| SMILES | IC50 ([1]; MBHA, DNA unwinding, mean ± SD of three titrations, read-out: Helicase IC50) | effect on HCV helicase catalyzed RNA unwinding (HCV helicase) | effect on HCV helicase catalyzed DNA unwinding ([1]; in words) |
| --- | --- | --- | --- |
| CO[C@@H]1[C@H](O)C[C@@H](O[C@@H]2C[C@H](Oc3cc4cc5c(c(O)c4c(O)c3C)C(=O)[C@@H](O[C@H]3C[C@@H](O[C@H]4C[C@@H](O[C@H]6C[C@](C)(O)[C@@H](OC(C)=O)[C@H](C)O6)[C@H](O)[C@@H](C)O4)[C@H](O)[C@@H](C)O3)[C@H]([C@H](OC)C(=O)[C@@H](O)[C@@H](C)O)C5)O[C@H](C)[C@@H]2OC(C)=O)O[C@@H]1C [Chromomycin A3, reference compound] | 150 ± 30 nM | no effect | – |
| Cc1ccc2c(c1)sc(-c1ccc(N(C)C)cc1)[n+]2C.[Cl-] [thioflavine T, reference compound] | – | no effect | no effect |
